From patent US20150352037A1, “ANTI-AGING COMPOSITION FOR VITALIZATION OF RETINOIC ACID RECEPTOR THAT CONTAINS MIXED EXTRACT OF CHINESE MATRIMONY VINE AND PINE NEEDLES AS EFFECTIVE COMPONENT” (Amorepacific Corporation, priority 2011, published 2015)

Assays:
Format in all cases: cell-based
collagenase = assay: Inhibition of collagenase expression (collagenase production) in human fibroblasts, ELISA absorbance at 405 nm; conditions: 24 h treatment, extracts 100 μg/ml (Example 3: 100 μg/ml of each extract), retinoic acid 1 μM, untreated control = 100
Protocol: Using the Lycium chinense fruit extract obtained in Example 1, the pine tree extract obtained in Example 2, and a 1:1 (w/w) mixture (Example 3) of a Lycium chinense fruit extract obtained by extracting 100 g of Lycium chinense fruits according to the method of Example 1 and a pine needle extract obtained by extracting 100 g of pine needles according to the method of Example 2, their effects on the inhibition of collagenase expression (collagenase production) were measured in the following manner. As a positive control, retinoic acid known to inhibit collagenase expression was used. […]
Next, the degree of collagenase production in each of the harvested cell cultures was measured using a collagenase measurement device (Amersham Phamasia, USA). […]
The absorbance of the 96-well plate having a yellow color was measured at 405 nm using an absorbance spectrometer, and the expression of collagenase was calculated using the following Equation 1. Herein, the absorbance of an untreated group was used as a control group. That is, the expression of collagenase in the control group was set at 100, and the expression of collagenase in each test group was calculated relative to the control group. […]
wherein A is the absorbance of the cell group treated with each test material, and B is the absorbance of the control group.

[1] = biological target: T1, retinoic acid receptor α (RAR-α) (Homo sapiens, UniProt P10276); assay: Retinoic acid receptor α transcriptional activity, luciferase reporter in transfected CV-1 cells; conditions: monkey kidney epithelial CV-1 cells, 20 h; extracts 100 μg/ml (Example 3: 100 μg/ml of each extract), retinoic acid 1 μM; corrected with β-galactosidase activity; control = 100
T1 construct: expressed in transfected cells; host or cells: monkey kidney epithelial CV-1 cells
T1 sequence (P10276 1-462): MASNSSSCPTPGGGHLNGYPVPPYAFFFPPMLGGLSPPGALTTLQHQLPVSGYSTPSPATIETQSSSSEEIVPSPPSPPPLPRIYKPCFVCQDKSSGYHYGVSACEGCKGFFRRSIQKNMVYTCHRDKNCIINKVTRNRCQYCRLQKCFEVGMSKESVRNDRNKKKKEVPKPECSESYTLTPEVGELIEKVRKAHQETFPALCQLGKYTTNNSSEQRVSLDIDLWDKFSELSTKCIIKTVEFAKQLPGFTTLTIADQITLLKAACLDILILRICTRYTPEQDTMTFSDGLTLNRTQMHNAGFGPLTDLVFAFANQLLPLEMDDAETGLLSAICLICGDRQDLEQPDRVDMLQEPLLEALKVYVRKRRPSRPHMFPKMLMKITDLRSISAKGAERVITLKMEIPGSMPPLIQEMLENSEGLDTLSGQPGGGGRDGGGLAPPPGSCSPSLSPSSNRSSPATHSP
Protocol: (§1) Using the Lycium chinense extract obtained in Example 1, the pine needle extract obtained in Example 2, and the Lycium chinense extract/pine needle extract mixture (Example 3) obtained by mixing the extract of Example 1 with the extract of Example 2, their effects on retinoic acid receptor α/γ (RAR-α/γ) transcriptional activities were measured in the following manner. As a positive control, retinoic acid known to activate retinoic acid receptor was used.
(§2) First, monkey kidney epithelial CV-1 cells were seeded into a 24-well plate at a concentration of 4×10^4 cells/well and cultured for 12-16 hours. Before transfection, the plate was washed with phosphate buffered saline (PBS), and then the medium was cultured. […] Then, each of the cell lysates was transferred to a cell culture plate (Costar) for a 96-well luminometer, and luciferase activity for each cell lysate was measured using Luciferase Assay System™ kit (Promega Corporation) according to the manufacturer's instruction. […]
(§3) Next, 50 μl of 1 M sodium carbonate (Na2CO3) solution was added to each well, and the absorbance of each well at 415 nm was measured. The efficiency of transformation in each cell lysate was corrected with the β-galactosidase activity measured as described above, and the relative activity of luciferase to the β-galactosidase activity was calculated and compared between Examples.

[2] = biological target: T2, retinoic acid receptor γ (RAR-γ) (Homo sapiens, UniProt P13631); assay: Retinoic acid receptor γ transcriptional activity, luciferase reporter in transfected CV-1 cells; conditions: monkey kidney epithelial CV-1 cells, 20 h; extracts 100 μg/ml (Example 3: 100 μg/ml of each extract), retinoic acid 1 μM; corrected with β-galactosidase activity; control = 100
T2 construct: expressed in transfected cells; host or cells: monkey kidney epithelial CV-1 cells
T2 sequence (P13631 1-454): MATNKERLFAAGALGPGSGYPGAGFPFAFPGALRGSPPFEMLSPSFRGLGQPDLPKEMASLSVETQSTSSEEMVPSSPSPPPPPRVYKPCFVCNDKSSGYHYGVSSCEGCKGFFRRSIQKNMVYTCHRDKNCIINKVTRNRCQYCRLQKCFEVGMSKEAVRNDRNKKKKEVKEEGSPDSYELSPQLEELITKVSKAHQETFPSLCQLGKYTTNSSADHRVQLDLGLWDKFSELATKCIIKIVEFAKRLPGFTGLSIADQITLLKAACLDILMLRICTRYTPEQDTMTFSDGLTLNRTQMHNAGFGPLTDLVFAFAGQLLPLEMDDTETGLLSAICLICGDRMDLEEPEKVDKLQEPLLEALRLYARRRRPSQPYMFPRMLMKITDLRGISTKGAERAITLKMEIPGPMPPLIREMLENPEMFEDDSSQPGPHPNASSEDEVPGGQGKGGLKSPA
Protocol: as §1, §2, §3

CC1=C(/C=C/C(C)=C/C=C/C(C)=C/C(=O)O)C(C)(C)CCC1 [Retinoic acid, retinoic acid]
Collagenase expression (%) (collagenase): 51.3% | Relative activity (%) of luciferase (RAR-α) [1]: 343% | Relative activity (%) of luciferase (RAR-γ) [2]: 385%
